# Source: patent publication US20230074558A1, “DIMERIC COMPOUNDS AS STING AGONISTS” (Mersana Therapeutics, Inc., priority 2019, published 2023)
# Tests used:
# Type in all cases: cell-based
# [1] = molecular target: T1, human STING (homozygous HAQ allele) (Homo sapiens, UniProt Q86WV6, G230A/H232R/R293Q/R71H); assay: Activation of human STING signaling in THP1-Dual Human Monocytes cells, IRF3 luciferase reporter induction; settings: 24 hours incubation
# T1 construct: THP1-Dual™ Human Monocytes cells with the homozygous HAQ allele, known to be a natural variant allele of STING; host or cells: THP1-Dual human monocytes
# T1 sequence (Q86WV6 whole entry R71H/G230A/H232R/R293Q): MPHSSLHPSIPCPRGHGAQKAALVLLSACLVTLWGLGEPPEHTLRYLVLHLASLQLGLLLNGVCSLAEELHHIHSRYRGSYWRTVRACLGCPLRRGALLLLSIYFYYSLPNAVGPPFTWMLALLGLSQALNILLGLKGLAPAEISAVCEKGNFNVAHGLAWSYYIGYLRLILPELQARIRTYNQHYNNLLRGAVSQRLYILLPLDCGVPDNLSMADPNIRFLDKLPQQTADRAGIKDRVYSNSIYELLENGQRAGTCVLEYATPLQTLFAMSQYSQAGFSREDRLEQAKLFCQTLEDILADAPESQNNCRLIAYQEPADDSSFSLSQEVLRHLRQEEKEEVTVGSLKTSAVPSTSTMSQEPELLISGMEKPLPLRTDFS
# Protocol: (§1) THP1-Dual™ Human Monocytes cells with the homozygous HAQ allele, known to be a natural variant allele of STING occurring in ˜20% of the human population (Invivogen) have been engineered with two independent gene reporter systems: a secreted embryonic alkaline phosphatase (SEAP) reporter gene for NFkB activity, and secreted luciferase reporter for […] (IRF3) activity were used. 4×10^5 THP1-Dual™ cells were incubated with test Compounds in a 5-fold titration steps from 1 to 0.0128 μM in RPMI media with 10% FBS, for 24 hours at 37° C. with 5% CO2. Cell culture supernatants (20 μl) from each incubated sample was added to resuspended QUANTI-Blue™ Solution (Invivogen, 180 μl) in each well of a flat-bottom 96-well plate, then incubated for 2 h. NFkB levels were evaluated using a spectrophotometer at 620-655 nm.
# (§2) To evaluate IRF3 reporter levels, cell culture supernatant (20 μl) from each incubated sample was added to QUANTI-Luc™ assay solution (Invivogen, 50 μl), and the luminescence was measured with a SpectraMax M3 spectrophotometer (Molecular Devices).
# (§3) The EC50 value was determined from the dose response curve based on reference Compounds. Table A provides the results for IRF3 reporter induction THP1-Dual™ Human Monocytes cells and Table B provides the results for IRF3 reporter induction in THP1-Dual™ KI-hSTING-R232 Cells (“A” means <1 μM; “B” means ≥1 μM and <10 μM; “C” means ≥10 μM).
# human STING = molecular target: T2, human STING (Homo sapiens, UniProt Q86WV6, G230A/H232R/R293Q/R71H); assay: Activation of human STING signaling in permeabilized THP1-Dual cells, IRF3 induction; settings: digitonin-permeabilized THP1-Dual cells, 30 minutes on ice then 24 h
# T2 construct: host or cells: THP1-Dual cells, digitonin-permeabilized
# T2 sequence (Q86WV6 whole entry R71H/G230A/H232R/R293Q): as above
# Protocol: 4×10^5 THP1-Dual™ cells (NF-κB-SEAP and IRF-Lucia luciferase Reporter Monocytes, Invivogen) were incubated with test Compounds in a 5-fold titration steps from […] in permeabilized buffer (50 mM HEPES pH 7.0, 100 mM KCl, 3 mM MgCl2, 85 mM sucrose, 0.2% BSA, 1 mM ATP, 0.1 mM GTP, 0.1 mM TTP, […]) for 30 minutes on ice. Cells were then washed and incubated in a fresh RPMI media with 10% FBS at 37° C. with 5% CO2 for 24 h. Cell culture supernatants from each sample were collected and NFkB and IRF3 were evaluated as above. Table B provides the results for IRF3 induction (“A” means <1 μM; “B” means ≥1 μM and <10 μM; “C” means ≥10 μM).
# R232 hSTING variant = molecular target: T3, R232 hSTING variant (Homo sapiens, UniProt Q86WV6, H232R); assay: IRF3 reporter induction in THP1-Dual KI-hSTING-R232 Cells; settings: THP1-Dual KI-hSTING-R232 Cells (R232 haplotype)
# T3 construct: host or cells: THP1-Dual KO-STING cells (knock-in: THP1-Dual KI-hSTING-R232)
# T3 sequence (Q86WV6 whole entry H232R): as the sequence (Q86WV6 whole entry R71H/G230A/H232R/R293Q) above, with H71R, A230G, Q293R counted along it
# Protocol: as §1, §2
# NFkB and IRF3 reporter levels were also determined for THP1-Dual™ KI-hSTING-H232 Cells and THP1-Dual™ KI-hSTING-R232 Cells. THP1-Dual™ KI-hSTING-H232 Cells (R232H Haplotype) were generated from THP1-Dual™ KO-STING cells by knockin of the intronless coding sequence (from the ATG to TGA) of the R232H human STING variant (Invivogen). R232H has been identified as a natural variant allele of STING occurring in ˜14% of the human population. THP1-Dual™ KI-hSTING-R232 Cells (R232 Haplotype) were generated from THP1-Dual™ KO-STING cells by knockin of the intronless coding sequence (from the ATG to the TGA) of the R232 hSTING variant. Genomic studies indicate that this variant, which contains an arginine at position 232 (R232), is the most prevalent variant with an occurrence (homozygous allele) of ˜45-58% in the human population.
# as §3
SMILES,EC50 [1],EC50 (human STING),EC50 (R232 hSTING variant)
"O=C(O)CCC(=O)c1nc2ccc(/C=C\c3ccc4nc(C(=O)CCC(=O)O)sc4c3)cc2s1 [Compound 6, (Z)-4,4′-(ethene-1,2-diylbis(benzo[d]thiazole-6,2-diyl))bis(4-oxobutanoic acid)]",≥ 10 µM,≥ 10 µM,–
"O=C(O)CCC(=O)c1cc2ccc(NC(=O)Nc3ccc4cc(C(=O)CCC(=O)O)sc4c3)cc2s1 [Compound 25, 4,4′-((carbonylbis(azanediyl))bis(benzo[b]thiophene-6,2-diyl))bis(4-oxobutanoic acid)]",≥ 10 µM,≥ 10 µM,–
"O=C(O)CCC(=O)c1cc2ccc(/C=C\c3ccc4cc(C(=O)CCC(=O)O)sc4c3)cc2s1 [Compound 36, (Z)-4,4′-(ethene-1,2-diylbis(benzo[b]thiophene-6,2-diyl))bis(4-oxobutanoic acid)]",≥ 10 µM,≥ 10 µM,–
"O=C(O)CCC(=O)c1cc2ccc(CNC(=S)NCc3ccc4cc(C(=O)CCC(=O)O)sc4c3)cc2s1 [Compound 48, 4,4′-(((thiocarbonylbis(azanediyl))bis(methylene))bis(benzo[b]thiophene-6,2-diyl))bis(4-oxobutanoic acid)]",≥ 10 µM,≥ 10 µM,–
"C=C(COc1c(OC)cc2sc(C(=O)CCC(=O)O)cc2c1F)COc1c(OC)cc2sc(C(=O)CCC(=O)O)cc2c1F [Compound 202, 4,4′-(((2-methylenepropane-1,3-diyl)bis(oxy))bis(4-fluoro-6-methoxybenzo[b]-thiophene-5,2-diyl))bis(4-oxobutanoic acid)]",< 1 µM,–,< 1 µM
"COc1cc2sc(C(=O)CCC(=O)O)cc2c(F)c1OC/C=C\COc1c(OC)cc2sc(C(=O)CCC(=O)O)cc2c1F [Compound 204, (Z)-4,4′-((but-2-ene-1,4-diylbis(oxy))bis(4-fluoro-6-methoxybenzo[b]-thiophene-5,2-diyl))bis(4-oxobutanoic acid)]",< 1 µM,–,< 1 µM
"C=C(COc1cc2cc(C(=O)CCC(=O)O)sc2cc1OC)COc1c(OC)cc2sc(C(=O)CCC(=O)O)cc2c1F [Compound 207, 4-(5-((2-(((2-(3-carboxypropanoyl)-4-fluoro-6-methoxybenzo[b]thiophen-5-yl)oxy)methyl)allyl)oxy)-6-methoxybenzo[b]thiophen-2-yl)-4-oxobutanoic acid]",< 1 µM,–,< 1 µM
COc1cc2sc(C(=O)CCC(=O)O)cc2c(F)c1OCC(=CC(=O)F)COc1c(OC)cc2sc(C(=O)CCC(=O)O)cc2c1F [Compound 208],≥ 10 µM,–,≥ 10 µM
COc1cc2sc(C(=O)CCC(=O)O)cc2c(F)c1OCC(=CC(=O)OC(C)(C)C)COc1c(OC)cc2sc(C(=O)CCC(=O)O)cc2c1F [Compound 209],≥ 10 µM,–,≥ 10 µM
"COc1cc2sc(C(=O)CCC(=O)O)cc2c(F)c1OCC(=CCO)COc1c(OC)cc2sc(C(=O)CCC(=O)O)cc2c1F [Compound 210, 4,4′-(((2-(2-hydroxyethylidene)propane-1,3-diyl)bis(oxy))bis(4-fluoro-6-methoxybenzo[b]thiophene-5,2-diyl))bis(4-oxobutanoic acid)]",< 1 µM,–,< 1 µM
COc1cc2sc(C(=O)CCC(=O)O)cc2cc1NC(=O)C1(C(=O)Nc2cc3cc(C(=O)CCC(=O)O)sc3cc2OC)CCOCC1 [Compound 218],≥ 10 µM,–,≥ 10 µM
COc1cc2sc(C(=O)CCC(=O)O)cc2cc1CCC(=O)Nc1cc2cc(C(=O)CCC(=O)O)sc2cc1OC [Compound 219],≥ 10 µM,–,≥ 10 µM
COc1cc2sc(C(=O)CCC(=O)O)cc2cc1NC(=O)C1CCN(c2cc3cc(C(=O)CCC(=O)O)sc3cc2OC)C1=O (stereo not shown) [Compound 221],≥ 10 µM,–,≥ 10 µM
COc1cc2sc(C(=O)CCC(=O)O)cc2cc1NC(=O)COc1c(OC)cc2sc(C(=O)CCC(=O)O)cc2c1F [Compound 222],≥ 10 µM,–,≥ 10 µM
COc1cc2sc(C(=O)CCC(=O)O)cc2cc1NC(=O)CC(=O)Nc1cc2cc(C(=O)CCC(=O)O)sc2cc1OC [Compound 224],≥ 10 µM,–,≥ 10 µM
COc1cc2sc(C(=O)CCC(=O)O)cc2cc1NCCC(=O)Nc1cc2cc(C(=O)CCC(=O)O)sc2cc1OC [Compound 226],≥ 10 µM,–,≥ 10 µM
COc1cc2sc(C(=O)CCC(=O)O)cc2c(F)c1OCC#CCOc1c(OC)cc2sc(C(=O)CCC(=O)O)cc2c1F [Compound 227],≥ 10 µM,–,≥ 10 µM
COC(=O)CCC(=O)c1cc2c(F)c(OCC3(COc4c(OC)cc5sc(C(=O)CCC(=O)OC)cc5c4F)COC3)c(OC)cc2s1 [Compound 262],≥ 10 µM,–,–
C=C(COc1c(OC)cc2sc(C(=O)CCC(=O)OC)nc2c1F)COc1c(OC)cc2sc(C(=O)CCC(=O)OC)nc2c1F [compound 264],< 1 µM,–,≥ 10 µM

# More lines, now with the values ahead:
EC50 [1],EC50 (human STING),EC50 (R232 hSTING variant),SMILES
≥ 10 µM,≥ 10 µM,–,"O=C(O)CCC(=O)c1nc2ccc(-c3ccccc3-c3ccc4nc(C(=O)CCC(=O)O)sc4c3)cc2s1 [Compound 9, 4,4′-(1,2-phenylenebis(benzo[d]thiazole-6,2-diyl))bis(4-oxobutanoic acid)]"
< 1 µM,–,–,O=C(O)CCC(=O)c1nc2ccc(NC(=O)COc3ccc4nc(C(=O)CCC(=O)O)sc4c3)cc2s1 [Compound 18]
1 to 10 µM,1 to 10 µM,–,"O=C(O)CCC(=O)c1cc2ccc(-c3ccccc3-c3ccc4cc(C(=O)CCC(=O)O)sc4c3)cc2s1 [Compound 30, 4,4′-(1,2-phenylenebis(benzo[b]thiophene-6,2-diyl))bis(4-oxobutanoic acid)]"
< 1 µM,–,≥ 10 µM,"C=C(COc1cc2cc(C(=O)CCC(=O)O)sc2cc1OC)COc1cc2cc(C(=O)CCC(=O)O)sc2cc1OC [Compound 40, 4,4′-(((2-methylenepropane-1,3-diyl)bis(oxy))bis(6-methoxybenzo[b]-thiophene-5,2-diyl))bis(4-oxobutanoic acid)]"
< 1 µM,–,1 to 10 µM,"COc1cc2sc(C(=O)CCC(=O)O)cc2c(F)c1OC/C=C/COc1c(OC)cc2sc(C(=O)CCC(=O)O)cc2c1F [Compound 203, (E)-4,4′-((but-2-ene-1,4-diylbis(oxy))bis(4-fluoro-6-methoxybenzo[b]thiophene-5,2-diyl))bis(4-oxobutanoic acid)]"
≥ 10 µM,–,≥ 10 µM,COc1cc2sc(C(=O)CCC(=O)O)cc2cc1NC(=O)C1(C(=O)Nc2cc3cc(C(=O)CCC(=O)O)sc3cc2OC)CC1 [Compound 205]
≥ 10 µM,–,< 1 µM,COc1cc2sc(C(=O)CCC(=O)O)cc2cc1NC(=O)CCOc1c(OC)cc2sc(C(=O)CCC(=O)O)cc2c1F [Compound 206]
< 1 µM,–,< 1 µM,"COc1cc2sc(C(=O)CCC(=O)O)cc2c(F)c1OCc1ccccc1COc1c(OC)cc2sc(C(=O)CCC(=O)O)cc2c1F [Compound 211, 4,4′-(((1,2-phenylenebis(methylene))bis(oxy))bis(4-fluoro-6-methoxybenzo[b]thiophene-5,2-diyl))bis(4-oxobutanoic acid)]"
≥ 10 µM,–,≥ 10 µM,COc1cc2sc(C(=O)CCC(=O)O)cc2cc1CCCC(=O)Nc1cc2cc(C(=O)CCC(=O)O)sc2cc1OC [Compound 220]
≥ 10 µM,–,≥ 10 µM,COc1cc2sc(C(=O)CCC(=O)O)cc2cc1NC(=O)C1(C(=O)Nc2cc3cc(C(=O)CCC(=O)O)sc3cc2OC)CCC1 [Compound 223]
≥ 10 µM,–,≥ 10 µM,COc1cc2sc(C(=O)CCC(=O)O)cc2cc1/C=C/C(=O)Nc1cc2cc(C(=O)CCC(=O)O)sc2cc1OC [Compound 229]
